Source: the NIST ThermoML archive (doi:10.1021/je900596d)
Numbers after ± are expanded uncertainties.

Settings: for vapor or sublimation pressure: Liquid, Closed cell (Static) method; for mass density: 263.41 K, Fluid (supercritical or subcritical phases), Vibrating tube method

For `FC(F)=C(F)C(F)(F)F` [hexafluoropropene], the “vapor or sublimation pressure” value (253.26 K) was 149.7 ± 1.1 kPa, the “vapor or sublimation pressure” value (258.26 K) was 184.1 ± 1.1 kPa and the “vapor or sublimation pressure” value (263.16 K) was 224.5 ± 1.1 kPa. It also gave a mass density (1.9 kPa) of 0.11 ± 0.03 kg/m3, a mass density (2.4 kPa) of 0.12 ± 0.03 kg/m3 and a mass density (2.9 kPa) of 0.15 ± 0.03 kg/m3. It also gave a mass density (3.5 kPa) of 0.21 ± 0.03 kg/m3, a mass density (4.3 kPa) of 0.25 ± 0.03 kg/m3 and a mass density (5 kPa) of 0.26 ± 0.03 kg/m3. The mass density (5.7 kPa) was 0.35 ± 0.03 kg/m3, the mass density (6.3 kPa) was 0.39 ± 0.03 kg/m3 and the mass density (7.1 kPa) was 0.47 ± 0.03 kg/m3. The mass density (7.8 kPa) was 0.48 ± 0.03 kg/m3, the mass density (8.5 kPa) was 0.55 ± 0.03 kg/m3 and the mass density (9.3 kPa) was 0.61 ± 0.03 kg/m3. It also gave a mass density (10 kPa) of 0.66 ± 0.03 kg/m3, a mass density (10.7 kPa) of 0.71 ± 0.03 kg/m3 and a mass density (11.4 kPa) of 0.79 ± 0.03 kg/m3. The mass density (12.1 kPa) was 0.8 ± 0.03 kg/m3, the mass density (12.9 kPa) was 0.87 ± 0.03 kg/m3 and the mass density (13.6 kPa) was 0.9 ± 0.03 kg/m3. For the same compound, the mass density (14.4 kPa) was 0.96 ± 0.03 kg/m3, the mass density (15 kPa) was 1 ± 0.03 kg/m3 and the mass density (15.8 kPa) was 1.02 ± 0.03 kg/m3. The mass density (16.5 kPa) was 1.08 ± 0.03 kg/m3, the mass density (17.1 kPa) was 1.17 ± 0.03 kg/m3 and the mass density (17.9 kPa) was 1.18 ± 0.03 kg/m3. It also gave a mass density (18.6 kPa) of 1.25 ± 0.03 kg/m3, a mass density (20 kPa) of 1.33 ± 0.03 kg/m3 and a mass density (21.5 kPa) of 1.4 ± 0.03 kg/m3. For the same compound, the mass density (22.9 kPa) was 1.53 ± 0.03 kg/m3, the mass density (24.3 kPa) was 1.63 ± 0.03 kg/m3 and the mass density (25.8 kPa) was 1.75 ± 0.03 kg/m3. For the same compound, the mass density (27.2 kPa) was 1.83 ± 0.03 kg/m3, the mass density (28.6 kPa) was 1.89 ± 0.03 kg/m3 and the mass density (30 kPa) was 2.05 ± 0.03 kg/m3. The mass density (31.4 kPa) was 2.13 ± 0.03 kg/m3, the mass density (32.8 kPa) was 2.25 ± 0.03 kg/m3 and the mass density (34.2 kPa) was 2.33 ± 0.03 kg/m3. The mass density (35.5 kPa) was 2.43 ± 0.03 kg/m3, the mass density (36.3 kPa) was 2.5 ± 0.03 kg/m3 and the mass density (37.7 kPa) was 2.61 ± 0.03 kg/m3. For the same compound, the mass density (39 kPa) was 2.7 ± 0.03 kg/m3, the mass density (40.5 kPa) was 2.77 ± 0.03 kg/m3 and the mass density (41.9 kPa) was 2.87 ± 0.03 kg/m3. For the same compound, the mass density (43.2 kPa) was 2.95 ± 0.03 kg/m3, the mass density (44.5 kPa) was 3.08 ± 0.03 kg/m3 and the mass density (45.3 kPa) was 3.09 ± 0.03 kg/m3. It also gave a mass density (46.6 kPa) of 3.21 ± 0.03 kg/m3, a mass density (48 kPa) of 3.31 ± 0.03 kg/m3 and a mass density (49.4 kPa) of 3.4 ± 0.03 kg/m3. It also gave a mass density (50.7 kPa) of 3.48 ± 0.03 kg/m3, a mass density (52.1 kPa) of 3.59 ± 0.03 kg/m3 and a mass density (53.4 kPa) of 3.66 ± 0.03 kg/m3. For the same compound, the mass density (54.7 kPa) was 3.8 ± 0.03 kg/m3, the mass density (56.1 kPa) was 3.85 ± 0.03 kg/m3 and the mass density (57.5 kPa) was 3.97 ± 0.03 kg/m3. For the same compound, the mass density (58.8 kPa) was 4.06 ± 0.03 kg/m3, the mass density (60.1 kPa) was 4.18 ± 0.03 kg/m3 and the mass density (61.4 kPa) was 4.28 ± 0.03 kg/m3. The mass density (62.8 kPa) was 4.33 ± 0.03 kg/m3, the mass density (64 kPa) was 4.44 ± 0.03 kg/m3 and the mass density (65.4 kPa) was 4.56 ± 0.03 kg/m3. It also gave a mass density (66.7 kPa) of 4.62 ± 0.03 kg/m3, a mass density (68 kPa) of 4.73 ± 0.03 kg/m3 and a mass density (69.3 kPa) of 4.82 ± 0.03 kg/m3. The mass density (70.5 kPa) was 4.89 ± 0.03 kg/m3, the mass density (71.3 kPa) was 4.97 ± 0.03 kg/m3 and the mass density (72.5 kPa) was 5.04 ± 0.03 kg/m3. The mass density (73.9 kPa) was 5.17 ± 0.03 kg/m3, the mass density (75.2 kPa) was 5.2 ± 0.03 kg/m3 and the mass density (76.4 kPa) was 5.28 ± 0.03 kg/m3. It also gave a mass density (77.7 kPa) of 5.44 ± 0.03 kg/m3, a mass density (79 kPa) of 5.49 ± 0.03 kg/m3 and a mass density (80.3 kPa) of 5.61 ± 0.03 kg/m3. The mass density (81.6 kPa) was 5.72 ± 0.03 kg/m3, the mass density (82.7 kPa) was 5.81 ± 0.03 kg/m3 and the mass density (83.5 kPa) was 5.85 ± 0.03 kg/m3. It also gave a mass density (84.7 kPa) of 5.95 ± 0.03 kg/m3, a mass density (86 kPa) of 6 ± 0.03 kg/m3 and a mass density (87.2 kPa) of 6.11 ± 0.03 kg/m3. The mass density (88.4 kPa) was 6.26 ± 0.03 kg/m3, the mass density (89.8 kPa) was 6.31 ± 0.03 kg/m3 and the mass density (91 kPa) was 6.41 ± 0.03 kg/m3. It also gave a mass density (92.3 kPa) of 6.52 ± 0.03 kg/m3, a mass density (93.5 kPa) of 6.56 ± 0.03 kg/m3 and a mass density (94.6 kPa) of 6.62 ± 0.03 kg/m3. It also gave a mass density (96 kPa) of 6.75 ± 0.03 kg/m3, a mass density (97.3 kPa) of 6.84 ± 0.03 kg/m3 and a mass density (98.5 kPa) of 6.94 ± 0.03 kg/m3. It also gave a mass density (99.7 kPa) of 7.02 ± 0.03 kg/m3, a mass density (100.4 kPa) of 7.07 ± 0.03 kg/m3 and a mass density (101.6 kPa) of 7.14 ± 0.03 kg/m3. It also gave a mass density (102.8 kPa) of 7.21 ± 0.03 kg/m3, a mass density (104.5 kPa) of 7.41 ± 0.03 kg/m3 and a mass density (105.8 kPa) of 7.51 ± 0.03 kg/m3. The mass density (107 kPa) was 7.55 ± 0.03 kg/m3, the mass density (108.2 kPa) was 7.68 ± 0.03 kg/m3 and the mass density (109.5 kPa) was 7.75 ± 0.03 kg/m3. It also gave a mass density (110.7 kPa) of 7.85 ± 0.03 kg/m3, a mass density (112.4 kPa) of 7.99 ± 0.03 kg/m3 and a mass density (114.2 kPa) of 8.06 ± 0.03 kg/m3. It also gave a mass density (115.5 kPa) of 8.22 ± 0.03 kg/m3, a mass density (116.7 kPa) of 8.3 ± 0.04 kg/m3 and a mass density (117.9 kPa) of 8.33 ± 0.04 kg/m3. The mass density (119.6 kPa) was 8.49 ± 0.04 kg/m3, the mass density (120.8 kPa) was 8.59 ± 0.04 kg/m3 and the mass density (122 kPa) was 8.7 ± 0.04 kg/m3. For the same compound, the mass density (123.2 kPa) was 8.78 ± 0.04 kg/m3, the mass density (124.4 kPa) was 8.88 ± 0.04 kg/m3 and the mass density (126 kPa) was 8.99 ± 0.04 kg/m3. The mass density (127.2 kPa) was 9.05 ± 0.04 kg/m3, the mass density (128.4 kPa) was 9.16 ± 0.04 kg/m3 and the mass density (130.2 kPa) was 9.28 ± 0.04 kg/m3. For the same compound, the mass density (131.8 kPa) was 9.44 ± 0.04 kg/m3, the mass density (133 kPa) was 9.5 ± 0.04 kg/m3 and the mass density (134.7 kPa) was 9.61 ± 0.04 kg/m3. For the same compound, the mass density (136.4 kPa) was 9.79 ± 0.04 kg/m3, the mass density (138.1 kPa) was 9.87 ± 0.04 kg/m3 and the mass density (139.8 kPa) was 10.02 ± 0.04 kg/m3. It also gave a mass density (141.5 kPa) of 10.14 ± 0.04 kg/m3, a mass density (143.2 kPa) of 10.31 ± 0.04 kg/m3 and a mass density (144.8 kPa) of 10.44 ± 0.04 kg/m3. For the same compound, the mass density (146.5 kPa) was 10.54 ± 0.04 kg/m3, the mass density (148.1 kPa) was 10.66 ± 0.04 kg/m3 and the mass density (149.8 kPa) was 10.8 ± 0.04 kg/m3. For the same compound, the mass density (151.4 kPa) was 10.89 ± 0.04 kg/m3, the mass density (153 kPa) was 11.03 ± 0.04 kg/m3 and the mass density (154.7 kPa) was 11.17 ± 0.04 kg/m3. For the same compound, the mass density (156.3 kPa) was 11.29 ± 0.04 kg/m3, the mass density (157.9 kPa) was 11.41 ± 0.04 kg/m3 and the mass density (159.6 kPa) was 11.53 ± 0.04 kg/m3. The mass density (161.2 kPa) was 11.7 ± 0.04 kg/m3.
